According to paper PMC12811658, “Design, Synthesis, and Structural Evolution of Pseudo‐Natural Product IDO1 Inhibitors and Degraders” (Angewandte Chemie (International Ed. in English), 2025):

Experiments:
[1] = tested on: Kyn levels in BxPC3 cells (kynurenine generated by IDO1); test: Cellular Kyn assay (automated Kyn screening assay); type: cell-based; conditions: for IC50: Homo sapiens, BXPC-3, 48 h, IFN-γ, L-Trp and compounds 48 h, mean ± SD, read-out: IC50 (Kyn assay), reduction of kynurenine levels
recombinant human IDO1 = target: T1, recombinant human IDO1 (Homo sapiens, UniProt P14902); test: IDO1 enzymatic assay in vitro; type: biochemical; conditions: pre-incubation 37 °C 45 min; for inhibition at 14 µM: mean ± SD; for IC50 / IDO1 activity IC50 [µM] (in vitro assay): determined if inhibition at 14 µM higher than 50%
T1 construct: The GST-tag of IDO1 was removed to obtain untagged full-length IDO1l using PreScission protease; GST (N, cleaved yes); made in house; own inference
T1 sequence (P14902 whole entry): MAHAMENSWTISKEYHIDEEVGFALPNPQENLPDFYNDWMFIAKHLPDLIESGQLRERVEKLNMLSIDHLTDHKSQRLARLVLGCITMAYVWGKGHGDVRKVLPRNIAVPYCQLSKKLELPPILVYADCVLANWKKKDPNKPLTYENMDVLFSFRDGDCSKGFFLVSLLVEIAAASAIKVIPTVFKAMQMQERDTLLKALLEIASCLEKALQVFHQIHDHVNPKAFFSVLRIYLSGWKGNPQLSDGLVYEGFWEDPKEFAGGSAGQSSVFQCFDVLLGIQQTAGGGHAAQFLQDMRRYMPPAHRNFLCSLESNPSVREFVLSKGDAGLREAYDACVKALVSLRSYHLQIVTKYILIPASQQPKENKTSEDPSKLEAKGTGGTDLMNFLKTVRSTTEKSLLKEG

[2] = target: T2, heme-bound IDO1 (holo-IDO1) (Homo sapiens, UniProt P14902); test: UV/Vis detection of heme-bound IDO1 (heme displacement); type: binding; conditions: 50 µM
T2 construct: The GST-tag of IDO1 was removed to obtain untagged full-length IDO1l using PreScission protease; GST (N, cleaved yes); made in house; own inference
T2 sequence (P14902 whole entry): as above
Procedure: (§1) Incubation at 37 °C for 3 h. Representative data for n = 3. c) Time‐course of heme displacement from IDO1 detected by the absorbance at the Soret peak (404 nm) as a function of time. […] All curves were fit using a one‐site model with N = 1 and defined IDO1 concentration. Left plots show baseline corrected data, while right plots show integrated binding isotherms versus iDegs/IDO1 ratio. IDO1 protein (125 µM) was titrated into the stirred sample cell containing iDegs (25 µM, except for iDeg‐8 at 50 µM). Representative data for n = 3, except for iDeg‐9 (n = 2). g)–i) In vivo activity of iDeg‐6. NSG immunodeficient mice were injected with SKOV‐3 cells. Mice were treated with 18 intraperitoneal injections of iDeg‐6 (30 mg kg^−1) or vehicle. The pharmacological treatment was twice daily. Tumor volume was determined weekly by digital caliper. g) SKOV‐3 tumor growth curves in iDeg‐6‐treated mice (n = 12, green lines) or vehicle‐treated mice (n = 13, gray lines). Statistical analysis was performed by two‐way ANOVA: ****p < 0.001. h) Body weight changes during treatment window (mean values ± range). i) Survival data are shown by Kaplan‐Meier survival analysis. Mantel–Haenszel statistical analysis: p < 0.0001).
Representative data of n=3 biological replicates. c, IDO1 was incubated with compounds (50 µM) or DMSO (control). UV/VIS spectra were acquired at five time points to monitor heme loss over time. Data are representative of two replicates.
The test compounds or DMSO (vehicle control) were incubated with recombinant full-length human IDO1 (rhIDO1; 10 µM) in 50 mM potassium phosphate buffer (pH 6.5) for 3 h at 37 °C. Following incubation, samples were centrifuged at 5,000 × g for 10 minutes. UV/Vis absorption spectra were then recorded from 250 nm to 650 nm in 1 nm increments using UV-transparent microplates (UV-STAR®, Greiner Bio-One, Austria) on a Spark® multimode microplate reader (Tecan, Austria). Absorbance values were analyzed at 404 nm (A404), and were plotted using GraphPad Prism version 9.0 (GraphPad Software, USA).

[3] = target: T3, recombinant full-length human IDO1 (Homo sapiens, UniProt P14902); test: Isothermal titration calorimetry (ITC); type: binding; conditions: 25 °C
T3 construct: The GST-tag of IDO1 was removed to obtain untagged full-length IDO1l using PreScission protease; GST (N, cleaved yes); made in house; own inference
T3 sequence (P14902 whole entry): as above
Procedure: as §1
ITC was performed using the MicroCal PEAQ-ITC system (Malvern) at 25 °C. Recombinant human full-length IDO1 (rhIDO1) was buffer-exchanged into 100 mM phosphate buffer (50 mM KH₂PO₄ and 50 mM K₂HPO₄, pH 6.57) with 1 mM TECP using a 10 K Amicon® Ultra centrifugal filter (Millipore). The buffer exchange was repeated ten times to ensure complete removal of interfering components. The final protein sample was diluted in the same phosphate buffer prior to titration.125 μM protein in 100 mM phosphate buffer was loaded into the syringe, while 25 μM compound (except for iDeg-8, 50 μM) in 100 mM phosphate buffer was loaded to the cell. All samples were adjusted to 25 °C and degassed before loading. Titrations were performed at 25 °C with one injection of 0.4 µL, followed by 18 injections of 2 µL. Experiments were performed with three biological replicates except for iDeg-9 with two biological replicates. Data were analyzed using the MicroCal PEAQ-ITC Analysis software and were plotted using GraphPad Prism 9.0 (GraphPad, USA).

[4] = target: IDO1 protein levels in BxPC3 cells (Homo sapiens, UniProt P14902); test: IDO1 immunoblotting (degradation); type: cell-based; design: endogenous in cells; host or cells: BxPC3 (DSMZ), IFN-γ stimulated; conditions: for Max. degradation (%): 24 h incubation, mean ± SD; for IDO1 protein level by immunoblotting (in words): IFN-γ 24 h, washout, compounds 24 h; for Dmax at 0.1 µM: BXPC-3, @100 nM
Sequence of IDO1 protein levels in BxPC3 cells (P14902 whole entry): as above

[5] = target: T4, IDO1 protein in IFN-γ stimulated HeLa cells (Homo sapiens, UniProt P14902); test: IDO1 immunostaining (immunofluorescence); type: cell-based; conditions: 24 h
T4 construct: endogenous in cells; host or cells: HeLa (DSMZ), IFN-γ stimulated
T4 sequence (P14902 whole entry): as above
Procedure: Figure 3 Comparison of IDO1 degradation efficiency for selected compounds. a) Detection of IDO1 levels using immunostaining. IFN‐γ stimulated HeLa cells were treated with the compounds for 24 h. IDO1 protein abundance was detected with IDO1 antibody. Data are mean values ± SD, n = 3. b) IDO1 protein levels in BxPC3 cells upon compounds treatment were detected using immunoblotting. BxPC3 cells were treated with IFN‐γ for 24 h prior to washout, followed by addition of compounds. Representative blot and quantified band intensities are shown (mean values ± SD, n = 3). See Figure S11a S12a for the uncropped blots. c) Key functions of hit compounds that influence degradation efficiency. d) Heatmap for IDO degradation efficiency. IDO1 levels were monitored as described in (c). See Table S1 for mean values and Figure S11b for the uncropped blots. e)–g) Dose dependent degradation of IDO1 protein in BxPC3 cells treated with iDeg‐7–9 and detected as described in (c). Representative data of n = 3 except for iDeg‐9 (n = 4). See Figure S12 S13 for the uncropped blots. h) Quantification of IDO1 protein levels from e‐g (mean values ± SD, n = 3 except for iDeg‐9 (n = 4). i) Tabulated inhibition and degradation ability of iDeg‐6–9. ND: not detected. j) Volcano plot of iDeg‐6‐induced changes on the global proteome. SKOV‐3 cells were treated with 10 µM iDeg‐6 or DMSO for 4 h followed by protein extraction, tryptic digest and LC‐MS/MS analysis (n = 4). Plot generated using UMSAP (T 0 = 0.5, S 0 = 0.5).
IFN-γ-stimulated Hela cells (5 ng/mL IFN-γ) were seeded in 96-well plates and incubated for 24 h. Subsequently, IFN-γ was washed out and cells were treated with compounds for additional 24 h. Cells were then washed once with PBS and fixed with 3.7% paraformaldehyde for 10 min at room temperature. Cells were washed three times with ice-cold PBS. […] Images were analyzed by SpectraMax Paradigm microplate reader (Molecular Devices) to extract IDO1 fluorescence intensity as well as the cell count. IDO1 fluorescence intensity was normalized to cell count. […]

Row | SMILES | IC50 [1] [nM] | inhibition at 14 µM (recombinant human IDO1) [%] | IC50 (recombinant human IDO1) [µM] | heme displacement from holo-IDO1 (in words) ([2]; 37 °C, 3 h, Soret band 404 nm) | time course of heme displacement (in words) ([2]; absorbance at 404 nm over time, compared to iDeg-6 and -8) | -TΔS (ITC) [3] [kcal/mol] | Kd [3] [nM] | ΔG (ITC) [3] [kcal/mol] | ΔH (ITC) [3] [kcal/mol] | Kd ([3]; one-site model) [nM] | Max. degradation (%) ([4]; 10 nM) | Max. degradation (%) ([4]; 100 nM) | IDO1 protein level by immunoblotting (in words) ([4]; BxPC3 cells) | IDO1 activity IC50 [µM] (in vitro assay) (recombinant human IDO1) | IDO1 staining fluorescence intensity (in words) [5] | Dmax at 0.1 µM ([4]; BxPC3 cells) [%] | DC50 ([4]; BxPC3 cells, ND: not detected, read-out: DC50 (half-maximal degradation concentration)) [nM] | fold increase in potency compared to iDeg-2 in Kyn assay [1] | Degradation Efficiency (%) ([4]; 100 nM, BxPC3 cells, heatmap Fig. 3d)
1 | C#Cc1ccc(NC(=O)OC[C@]23CN(S(=O)(=O)c4ccc(C(C)(C)C(=O)O)cc4)C[C@H]2C[C@H]2C[C@@H]3C2(C)C)cc1 [101 (iDeg-7), 2-(4-(((3aS,4R,6R,7aS)-3a-((((4-ethynylphenyl)carbamoyl)oxy)methyl)-5,5-dimethyloctahydro-2H-4,6-methanoisoindol-2-yl)sulfonyl)phenyl)-2-methylpropanoic acid] | 21 ± 6 | 75 ± 4 | 0.31 ± 0.06 | most efficient heme displacement | faster | 13.2 | 122 | -9.4 | -22.6 ± 0.4 | 120 ± 20 | 36 ± 10 (5) % | 54 ± 8 (5) % | only moderately reduced the IDO1 protein level | – | – | – | – | – | –
2 | Cc1ccc(NC(=O)OC[C@]23CN(S(=O)(=O)c4ccc(C(C)(C)C)cc4)C[C@H]2C[C@H]2C[C@@H]3C2(C)C)cc1 [10 (iDeg-1), ((3aS,4R,6R,7aS)-2-((4-(tert-butyl)phenyl)sulfonyl)-5,5-dimethyloctahydro-3aH-4,6-methanoisoindol-3a-yl)methyl p-tolylcarbamate] | 830 ± 310 | < 25 | – | – | – | – | – | – | – | – | – | – | modulate IDO1 abundance | – (Inactive: >75% Kyn level observed up to a concentration of 14 µM and no IC50 value obtained) | reduced the fluorescence intensity of the IDO1 staining | – | – | – | –
3 | C#Cc1ccc(NC(=O)OC[C@]23CN(S(=O)(=O)c4ccc(C(C)(C)C)cc4CC)C[C@H]2C[C@H]2C[C@@H]3C2(C)C)cc1 [99 (iDeg-8), ((3aS,4R,6R,7aS)-2-((4-(tert-butyl)-2-ethylphenyl)sulfonyl)-5,5-dimethyloctahydro-3aH-4,6-methanoisoindol-3a-yl)methyl (4-ethynylphenyl)carbamate] | 9.7 ± 2 | 61 ± 1 | 4 ± 3.3 | – | – | 3.5 | – | -8.2 | -11.8 ± 0.7 | 940 | 66 ± 4 (3) % | 75 ± 7 (3) % | – | – | – | 75 | 3 | – | –
4 | C#Cc1ccc(NC(=O)OC[C@]23CN(S(=O)(=O)c4ccc(C(C)(C)C)cc4)C[C@H]2C[C@H]2C[C@@H]3C2(C)C)cc1 [43 (iDeg-3), ((3aS,4R,6R,7aS)-2-((4-(tert-butyl)phenyl)sulfonyl)-5,5-dimethyloctahydro-3aH-4,6-methanoisoindol-3a-yl)methyl (4-ethynylphenyl)carbamate] | 46 ± 21 | < 25 | – | – | – | – | – | – | – | – | 29 ± 16 (5) % | 62 ± 10 (5) % | – | – (Inactive: >75% Kyn level observed up to a concentration of 14 µM and no IC50 value obtained) | – | – | – | three‐fold | 62
5 | CC(C)(CC(=O)O)c1ccc(S(=O)(=O)N2C[C@H]3C[C@H]4C[C@H](C4(C)C)[C@@]3(COC(=O)Nc3ccc(I)cc3)C2)cc1 [compound 91, 3-(4-(((3aS,4R,6R,7aS)-3a-((((4-iodophenyl)carbamoyl)oxy)methyl)-5,5-dimethyloctahydro-2H-4,6-methanoisoindol-2-yl)sulfonyl)phenyl)-3-methylbutanoic acid] | 32 ± 7 | 59 ± 2 | 1.9 ± 0.5 | – | – | – | – | – | – | – | 27 ± 5 (3) % | 36 ± 2 (3) % | – | – | – | 36 to 54 | – | – | –
